Results on 31 compounds are retold here after patent US12171756B2, “NLRP3 modulators” (Innate Tumor Immunity, Inc., priority 2017, dated 2024).

pEC50, pIC50: −log10 of the molar value.

One assay deals with T1, human TLR7 (Homo sapiens, UniProt Q9NYK1).
T1 construct: host or cells: human HEK-Blue cells (HEK293-derived) co-expressing TLR7 and an NF-kB/AP1-inducible SEAP reporter
T1 sequence (Q9NYK1 27-1049): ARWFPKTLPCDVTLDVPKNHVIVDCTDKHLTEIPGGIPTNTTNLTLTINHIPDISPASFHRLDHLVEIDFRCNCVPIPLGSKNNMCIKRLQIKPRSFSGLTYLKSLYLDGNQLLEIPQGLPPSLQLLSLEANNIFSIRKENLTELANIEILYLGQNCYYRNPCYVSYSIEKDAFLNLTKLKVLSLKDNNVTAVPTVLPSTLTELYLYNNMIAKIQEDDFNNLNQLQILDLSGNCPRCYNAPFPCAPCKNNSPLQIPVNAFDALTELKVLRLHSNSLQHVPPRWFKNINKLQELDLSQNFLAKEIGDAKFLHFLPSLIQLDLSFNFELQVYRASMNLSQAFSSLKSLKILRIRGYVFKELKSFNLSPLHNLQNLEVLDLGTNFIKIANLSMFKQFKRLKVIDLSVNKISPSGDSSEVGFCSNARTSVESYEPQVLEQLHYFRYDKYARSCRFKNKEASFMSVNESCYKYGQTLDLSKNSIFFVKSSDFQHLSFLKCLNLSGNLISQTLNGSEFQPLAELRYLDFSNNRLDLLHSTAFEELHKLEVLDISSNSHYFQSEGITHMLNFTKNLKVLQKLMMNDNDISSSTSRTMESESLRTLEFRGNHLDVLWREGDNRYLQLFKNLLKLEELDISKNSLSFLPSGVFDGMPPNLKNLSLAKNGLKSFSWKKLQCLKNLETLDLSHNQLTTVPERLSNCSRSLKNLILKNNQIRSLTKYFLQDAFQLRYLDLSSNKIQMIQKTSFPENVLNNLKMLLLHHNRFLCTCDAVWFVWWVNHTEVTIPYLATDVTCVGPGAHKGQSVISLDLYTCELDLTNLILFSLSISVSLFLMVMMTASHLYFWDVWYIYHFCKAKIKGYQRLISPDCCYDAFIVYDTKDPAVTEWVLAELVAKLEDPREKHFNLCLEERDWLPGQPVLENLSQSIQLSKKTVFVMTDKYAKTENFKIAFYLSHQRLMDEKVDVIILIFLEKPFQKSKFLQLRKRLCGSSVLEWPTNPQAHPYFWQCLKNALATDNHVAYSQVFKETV
As to the kind of experiment: In vitro human TLR7 binding reporter assay (HEK-Blue, NF-kB/AP1-inducible SEAP). Format: cell-based. The settings on record: HEK-Blue human TLR7 SEAP reporter cells; activity range classes; read-out: TLR7 Agonist EC50. The gist of the method:
(§1)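 EC50s come from NF-kB/AP1-driven SEAP secretion in HEK-Blue cells expressing TLR7 or TLR8, measured with Quanti-Blue after an 18 h compound incubation. Maximal response is defined by a 50 μM reference standard.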

Assay [1] deals with IL-1β production in PMA-differentiated THP-1 cells. As to the kind of experiment: Measurement of IL-1β production in PMA-differentiated THP-1 cells (ELISA, 4 hours). Format: cell-based, human. Conditions: Homo sapiens, THP-1, human IL-1β production, assayed using one or more of the described procedures, read-out: NLRP3 hIL1B IC50. In outline:
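THP-1 cells differentiated with PMA (10 μg/ml, 24 h), replated at 1×10^6 cells/ml in RPMI with 2% FBS and exposed to compounds (e.g. 0.1–100 μM, 1% DMSO final) for 4 hours. IL-1β in cell-free supernatant quantified by ELISA against vehicle control.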

The target of another assay is T2, human TLR8 (Homo sapiens, UniProt Q9NR97).
T2 construct: host or cells: human HEK-Blue cells (HEK293-derived) co-expressing TLR8 and an NF-kB/AP1-inducible SEAP reporter
T2 sequence (Q9NR97 27-1041): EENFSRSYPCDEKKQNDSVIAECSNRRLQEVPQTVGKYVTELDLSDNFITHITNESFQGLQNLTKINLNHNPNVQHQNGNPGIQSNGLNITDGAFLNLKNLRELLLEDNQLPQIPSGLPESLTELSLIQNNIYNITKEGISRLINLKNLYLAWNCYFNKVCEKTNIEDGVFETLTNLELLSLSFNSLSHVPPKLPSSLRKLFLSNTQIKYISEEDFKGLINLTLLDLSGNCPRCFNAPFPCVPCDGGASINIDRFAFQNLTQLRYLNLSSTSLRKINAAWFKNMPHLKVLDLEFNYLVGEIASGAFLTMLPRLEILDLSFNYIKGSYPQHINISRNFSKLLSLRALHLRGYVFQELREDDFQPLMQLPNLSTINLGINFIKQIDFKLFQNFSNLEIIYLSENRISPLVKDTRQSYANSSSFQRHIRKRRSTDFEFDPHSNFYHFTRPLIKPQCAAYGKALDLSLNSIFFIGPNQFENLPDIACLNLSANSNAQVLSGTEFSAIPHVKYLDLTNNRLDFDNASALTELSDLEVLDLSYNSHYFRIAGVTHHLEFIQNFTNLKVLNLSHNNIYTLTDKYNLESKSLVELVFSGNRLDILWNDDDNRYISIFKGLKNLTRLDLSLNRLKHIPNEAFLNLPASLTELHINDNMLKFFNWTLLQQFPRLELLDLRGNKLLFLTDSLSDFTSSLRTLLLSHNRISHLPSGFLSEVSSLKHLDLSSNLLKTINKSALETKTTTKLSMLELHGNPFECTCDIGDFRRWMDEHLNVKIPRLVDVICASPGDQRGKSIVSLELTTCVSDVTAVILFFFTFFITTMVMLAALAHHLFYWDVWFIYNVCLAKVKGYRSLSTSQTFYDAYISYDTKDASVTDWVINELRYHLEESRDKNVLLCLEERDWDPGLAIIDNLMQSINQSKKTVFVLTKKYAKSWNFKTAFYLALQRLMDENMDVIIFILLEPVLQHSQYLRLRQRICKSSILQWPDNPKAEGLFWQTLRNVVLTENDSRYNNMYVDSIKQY
As to the kind of experiment: In vitro human TLR8 binding reporter assay (HEK-Blue, NF-kB/AP1-inducible SEAP). Format: cell-based. The settings on record: HEK-Blue human TLR8 SEAP reporter cells; activity range classes; read-out: TLR8 Agonist EC50. The gist of the method:
as §1

For the compound `Cn1cncc1CNc1cc(N)nc2cc(-c3ccn[nH]3)ccc12` [Compound 252], the pEC50 on human TLR7 and at human TLR8 was less than 4.00 in each case. For the same compound, the pIC50 in assay [1] was 5.77.

In the case of `CNc1cc(N)nc2cc(-c3ccn[nH]3)ccc12` [Compound 253], the pEC50 at human TLR7 and at human TLR8 was less than 4.00 in each case. Besides, in assay [1], the negative logarithm of the IC50 (pIC50) was 6.57.

On to `COCC(O)CNc1cc(N)nc2cc(-c3ccn[nH]3)ccc12` (stereo not drawn) [Compound 254], for which the pEC50 on human TLR7 and on human TLR8 was less than 4.00 each time. In assay [1], the pIC50 was 6.68.

Take `COCCNc1cc(N)nc2cc(-c3ccn[nH]3)ccc12` [Compound 255]: the pEC50 on human TLR7 and on human TLR8 was less than 4.00 each time. For the same compound, in assay [1], the pIC50 is 6.57.

Consider `Nc1cc(NCc2ccccc2)c2ccc(-c3ccn[nH]3)cc2n1` [Compound 256], for which the pEC50 at human TLR7 and at human TLR8 was less than 4.00 throughout. Moreover, the pIC50 in assay [1] was 6.66.

Consider `CS(=O)(=O)Nc1cccc(CNc2cc(N)nc3cc(-c4ccn[nH]4)ccc23)c1` [Compound 257], for which the pEC50 at human TLR7 and on human TLR8 was less than 4.00 each time. The pIC50 in assay [1] is 6.17.

For the compound `CS(=O)(=O)Nc1ccc(CNc2cc(N)nc3cc(-c4ccn[nH]4)ccc23)cc1` [Compound 258], the pEC50 on human TLR7 and at human TLR8 was less than 4.00 in each case. For the same compound, in assay [1], the pIC50 was 5.74.

Take `COc1cccc(CNc2cc(N)nc3cc(-c4ccn[nH]4)ccc23)c1` [Compound 259]: the pEC50 on human TLR7 and at human TLR8 was less than 4.00 each time. Also, in assay [1], the pIC50 is 6.19.

On to `Nc1cc(NCc2cccc(F)c2)c2ccc(-c3ccn[nH]3)cc2n1` [Compound 260], for which the pEC50 at human TLR7 and at human TLR8 was less than 4.00 throughout. The pIC50 in assay [1] was 6.49.

For the compound `Nc1cc(NCCc2cc[nH]n2)c2ccc(-c3ccn[nH]3)cc2n1` [Compound 261], the pEC50 at human TLR7 and at human TLR8 was less than 4.00 throughout. The pIC50 in assay [1] is 6.85.

On to `Nc1cc(NCCn2cccn2)c2ccc(-c3ccn[nH]3)cc2n1` [Compound 262], for which the pEC50 on human TLR7 and on human TLR8 was less than 4.00 each time. For the same compound, the pIC50 in assay [1] was 6.92.

In the case of `CN(Cc1cc[nH]n1)c1cc(N)nc2cc(-c3ccn[nH]3)ccc12` [Compound 263], the pEC50 on human TLR7 and on human TLR8 was less than 4.00 each time. In assay [1], the pIC50 was 5.54.

Consider `CN(Cc1cccnc1)c1cc(N)nc2cc(-c3ccn[nH]3)ccc12` [Compound 264], for which the pEC50 on human TLR7 and on human TLR8 was less than 4.00 each time. For the same compound, in assay [1], the negative logarithm of the IC50 (pIC50) is 5.54.

In the case of `Nc1cc(N2CCCOCC2)c2ccc(-c3ccn[nH]3)cc2n1` [Compound 265], the pEC50 at human TLR7 and on human TLR8 was less than 4.00 in each case. Further, the pIC50 in assay [1] is 6.46.

For the compound `Nc1cc(NCC2COCCO2)c2ccc(-c3ccn[nH]3)cc2n1` (stereo not drawn) [Compound 266], the pEC50 at human TLR7 and on human TLR8 was less than 4.00 in each case. Further, in assay [1], the pIC50 was 6.41.

With `Nc1cc(NC[C@@H]2CNCCO2)c2ccc(-c3ccn[nH]3)cc2n1` [Compound 267], the pEC50 on human TLR7 and on human TLR8 was less than 4.00 throughout. In addition, the pIC50 in assay [1] was 5.80.

Regarding `Nc1cc(NC[C@@H]2COCCN2)c2ccc(-c3ccn[nH]3)cc2n1` [Compound 268], the pEC50 at human TLR7 and at human TLR8 was less than 4.00 throughout. Moreover, the negative-log IC50 (pIC50) in assay [1] was 6.01.

On to `Nc1cc(NC[C@H]2COCCN2)c2ccc(-c3ccn[nH]3)cc2n1` [Compound 269], for which the negative-log EC50 (pEC50) on human TLR7 and on human TLR8 was less than 4.00 in each case. Also, the pIC50 in assay [1] is 5.94.

For the compound `CC(C)(C)OC(=O)N1CC(Nc2cc(N)nc3cc(-c4ccn[nH]4)ccc23)C1` [Compound 270], the pEC50 at human TLR7 and at human TLR8 was less than 4.00 throughout. Besides, the pIC50 in assay [1] is 5.13.

As to `Nc1cc(N2CC(F)(F)C2)c2ccc(-c3ccn[nH]3)cc2n1` [Compound 271], the pEC50 at human TLR7 and at human TLR8 was less than 4.00 in each case. In assay [1], the pIC50 is 6.44.

With `Nc1cc(N2CCC[C@@H]2CO)c2ccc(-c3ccn[nH]3)cc2n1` [Compound 272], the pEC50 at human TLR7 and on human TLR8 was less than 4.00 each time. The pIC50 in assay [1] is 5.21.

With `Nc1cc(NC2CCC2)c2ccc(-c3ccn[nH]3)cc2n1` [Compound 273], the pEC50 at human TLR7 and at human TLR8 was less than 4.00 each time. In addition, the pIC50 in assay [1] was 6.77.

Take `Nc1cc(N2CCCC(CO)C2)c2ccc(-c3ccn[nH]3)cc2n1` (stereo not drawn) [Compound 274]: the negative logarithm of the EC50 (pEC50) at human TLR7 and on human TLR8 was less than 4.00 throughout. In assay [1], the pIC50 was 5.70.

As for `Nc1cc(NC2CCOC2)c2ccc(-c3ccn[nH]3)cc2n1` (stereo not drawn) [Compound 275], the pEC50 at human TLR7 and at human TLR8 was less than 4.00 throughout. In addition, the pIC50 in assay [1] is 6.70.

In the case of `Nc1cc(N[C@@H]2CCOC2)c2ccc(-c3ccn[nH]3)cc2n1` [Compound 276], the pEC50 on human TLR7 and on human TLR8 was less than 4.00 in each case. Also, in assay [1], the pIC50 was 6.28.

`Nc1cc(N[C@H]2CCOC2)c2ccc(-c3ccn[nH]3)cc2n1` [Compound 277]: the pEC50 on human TLR7 and on human TLR8 was less than 4.00 throughout. In addition, in assay [1], the pIC50 is 6.66.

For `Nc1cc(NC2CCOCC2)c2ccc(-c3ccn[nH]3)cc2n1` [Compound 278], the negative-log EC50 (pEC50) on human TLR7 and at human TLR8 was less than 4.00 throughout. Further, the pIC50 in assay [1] is 5.88.

For the compound `Nc1cc(NC2CCCOC2)c2ccc(-c3ccn[nH]3)cc2n1` (stereo not drawn) [Compound 279], the pEC50 at human TLR7 and at human TLR8 was less than 4.00 each time. In addition, the pIC50 in assay [1] is 6.48.

Take `Nc1cc(NC2COC2)c2ccc(-c3ccn[nH]3)cc2n1` [Compound 280]: the pEC50 at human TLR7 and at human TLR8 was less than 4.00 throughout. For the same compound, in assay [1], the pIC50 is 5.80.

`Nc1cc(NC2CCCCC2)c2ccc(-c3ccn[nH]3)cc2n1` [Compound 281]: the pEC50 on human TLR7 and at human TLR8 was less than 4.00 each time. Further, the negative logarithm of the IC50 (pIC50) in assay [1] was 6.24.

For the compound `Nc1cc(N[C@H]2CC[C@H](O)CC2)c2ccc(-c3ccn[nH]3)cc2n1` [Compound 282], the pEC50 at human TLR7 and on human TLR8 was less than 4.00 throughout. The pIC50 in assay [1] was 5.25.
